# US9079901B2, “Fused heterocyclic compounds as ion channel modulators” (Gilead Sciences, Inc., priority 2010, dated 2015)
# Molecular target: wild-type human cardiac sodium channel, hNav1.5 (late sodium current) in HEK293 cells (Homo sapiens, UniProt Q14524)
# Experiment: Late INa screening assay (automated whole-cell patch clamp, PatchXpress)
# Type: cell-based
# Conditions: HEK293, compound at 1 μM; late INa generated with 10 μM Tefluthrin (or 50 nM ATX II); HEK293 hNav1.5; read-out: Late INa 1 μM (percent block of late INa)
# Description: The late sodium current (Late INa) and peak sodium current (Peak INa) assays are performed on an automated electrophysiology platform, PatchXpress 7000A (MDS Analytical Technologies, Sunnyvale, Calif.), which uses the whole cell patch clamp technique to measure currents through the cell membrane of up to 16 cells at a time. The assay uses an HEK293 (human embryonic kidney) cell line heterologously expressing the wild-type human cardiac sodium channel, hNav1.5, purchased from Millipore (Billerica, Mass.). No beta subunits were coexpressed with the Na channel alpha subunit. Cells are maintained with standard tissue culture procedures and stable channel expression is maintained with 400 μg/ml Geneticin in the culture medium. Cells isolated for use on PatchXpress are incubated for 5 minutes in Versene 1× and then for 2 minutes in 0.0125% Trypsin-EDTA (both at 37° C.) to ensure that 80-90% of the cells are single and not part of a cell cluster. Experiments are carried out at 24-27° C.
# For both the Late INa and Peak INa assays, series resistance compensation is set to 50% and whole-cell compensation is performed automatically. Currents are low-pass filtered at 10 kHz and digitized at 31.25 kHz. Currents through open sodium channels are automatically recorded and stored in the DataXpress2 database (MDS Analytical Technologies, Sunnyvale, Calif.). Analysis is performed using DataXpress2 analysis software and data are compiled in Excel.
# Compound stocks are routinely made in glass vials to 10 mM in dimethyl sulfoxide (DMSO). In some cases, when compounds are not soluble in DMSO, they are made in 100% ethanol. Stocks are sonicated as necessary. The extracellular solution for screening Late INa is composed of: 140 mM NaCl, 4 mM KCl, 1.8 mM CaCl2, 0.75 mM MgCl2, and 5 mM HEPES with pH adjusted to 7.4 using NaOH. The extracellular solution for screening Peak INa is composed of: 20 mM NaCl, 120 mM N-methyl-D glucamine, 4 mM KCl, 1.8 mM CaCl2, 0.75 mM MgCl2, and 5 mM HEPES with pH adjusted to 7.4 using HCl. The intracellular solution used to perfuse the inside of the cells for both the Late INa and Peak INa assays contains: 120 mM CsF, 20 mM CsCl, 5 mM EGTA, 5 mM HEPES and pH adjusted to 7.4 with CsOH. Compounds are diluted in extracellular solution to 10 μM in glass vials and then transferred to glass well plates before robotic addition to the cells. The 0Na extracellular solution used at the end of each experiment for the Late INa and Peak INa assays to measure baseline current contains: 140 mM N-methyl-D-glucamine; 4 mM KCl; 1.8 mM CaCl2; 0.75 mM MgCl2; 5 mM HEPES and pH was adjusted to 7.4 with HCl.
# For the Late INa assay, sodium channels are activated every 10 seconds (0.1 Hz) by depolarizing the cell membrane to −20 mV for 250 milliseconds (ms) from a holding potential of −120 mV. In response to a −20 mV voltage step, typical Nav1.5 sodium currents activate rapidly to a peak negative current and then inactivate nearly completely within 3-4 ms.
# All compounds are tested to determine their activity in blocking the late sodium current. Late INa current is generated by adding 10 μM Tefluthrin (pyrethroid) to the extracellular solution while recording Na currents. For some experiments, 50 nM ATX II (sea anemone toxin), another late INa activator, was used to generate the late component. Both activators generate late components that are large enough that block of the late component by compounds can be measured easily. For the purposes of the screening, late INa is defined as the mean current between 225 ms and 250 ms after stepping to −20 mV to activate Na channels. After establishing the whole cell recording configuration, late INa activators are added to each well 4 times over a 16-17 minute period so that the late component of the Na current reaches a stable value. Compounds are then added (typically at 10 μM), in the presence of late INa activator, with 3 additions over the course of 7 or 8 minutes. […]
# wild-type human cardiac sodium channel, hNav1.5 (late sodium current) in HEK293 cells, sequence (Q14524 whole entry): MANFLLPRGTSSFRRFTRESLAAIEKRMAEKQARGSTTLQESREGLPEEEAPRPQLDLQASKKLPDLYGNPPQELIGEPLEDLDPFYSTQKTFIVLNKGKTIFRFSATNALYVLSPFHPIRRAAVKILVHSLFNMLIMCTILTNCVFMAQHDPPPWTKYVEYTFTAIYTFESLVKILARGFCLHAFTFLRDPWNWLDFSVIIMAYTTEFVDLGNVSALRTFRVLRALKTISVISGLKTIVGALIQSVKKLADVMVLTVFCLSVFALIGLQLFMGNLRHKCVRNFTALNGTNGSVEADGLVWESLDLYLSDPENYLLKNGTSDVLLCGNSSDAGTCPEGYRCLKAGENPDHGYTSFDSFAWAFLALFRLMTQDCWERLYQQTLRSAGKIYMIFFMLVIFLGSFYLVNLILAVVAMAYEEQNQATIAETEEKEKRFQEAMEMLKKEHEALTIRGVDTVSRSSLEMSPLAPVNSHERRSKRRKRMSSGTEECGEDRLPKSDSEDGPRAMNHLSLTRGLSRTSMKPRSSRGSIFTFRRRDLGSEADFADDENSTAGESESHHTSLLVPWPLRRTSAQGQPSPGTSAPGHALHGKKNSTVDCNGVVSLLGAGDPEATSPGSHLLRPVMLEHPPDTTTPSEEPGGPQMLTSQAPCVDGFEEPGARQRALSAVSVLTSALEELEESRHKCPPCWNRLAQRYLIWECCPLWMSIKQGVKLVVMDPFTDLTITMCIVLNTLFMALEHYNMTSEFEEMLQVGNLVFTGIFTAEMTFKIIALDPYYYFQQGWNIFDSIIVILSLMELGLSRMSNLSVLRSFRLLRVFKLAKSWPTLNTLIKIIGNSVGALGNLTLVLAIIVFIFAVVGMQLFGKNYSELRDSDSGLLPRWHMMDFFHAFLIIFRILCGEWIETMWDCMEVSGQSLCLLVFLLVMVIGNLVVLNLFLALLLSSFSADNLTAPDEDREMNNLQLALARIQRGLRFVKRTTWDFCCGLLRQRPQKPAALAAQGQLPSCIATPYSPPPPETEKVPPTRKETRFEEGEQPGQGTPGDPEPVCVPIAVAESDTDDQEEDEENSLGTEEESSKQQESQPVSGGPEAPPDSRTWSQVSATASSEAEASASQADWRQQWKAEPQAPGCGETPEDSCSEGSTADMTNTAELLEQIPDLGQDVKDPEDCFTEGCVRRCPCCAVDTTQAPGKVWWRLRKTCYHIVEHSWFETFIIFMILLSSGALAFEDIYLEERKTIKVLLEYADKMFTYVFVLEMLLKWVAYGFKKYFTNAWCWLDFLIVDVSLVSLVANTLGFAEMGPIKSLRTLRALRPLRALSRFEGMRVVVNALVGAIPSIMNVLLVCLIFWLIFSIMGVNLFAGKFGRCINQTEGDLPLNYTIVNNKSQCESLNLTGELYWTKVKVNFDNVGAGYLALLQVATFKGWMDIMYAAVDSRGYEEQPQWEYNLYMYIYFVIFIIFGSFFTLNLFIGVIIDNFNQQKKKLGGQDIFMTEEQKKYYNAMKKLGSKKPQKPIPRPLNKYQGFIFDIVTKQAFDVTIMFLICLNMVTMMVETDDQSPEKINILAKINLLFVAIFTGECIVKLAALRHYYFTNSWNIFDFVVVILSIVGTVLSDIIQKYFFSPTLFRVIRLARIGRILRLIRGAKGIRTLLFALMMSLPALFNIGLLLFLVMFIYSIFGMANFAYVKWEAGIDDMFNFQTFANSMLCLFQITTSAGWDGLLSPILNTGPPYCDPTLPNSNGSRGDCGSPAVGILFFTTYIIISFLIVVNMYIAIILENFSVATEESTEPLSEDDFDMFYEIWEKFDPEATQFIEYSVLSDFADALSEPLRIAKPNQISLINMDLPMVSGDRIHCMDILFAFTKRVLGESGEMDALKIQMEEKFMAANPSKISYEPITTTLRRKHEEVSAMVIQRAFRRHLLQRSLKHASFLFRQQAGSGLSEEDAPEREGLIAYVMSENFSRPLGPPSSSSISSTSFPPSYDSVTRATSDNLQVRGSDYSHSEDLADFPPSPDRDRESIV
row,SMILES,inhibition at 1 µM [%]
1,"Cc1noc(Cn2nc3ccc(-c4ccc(Cl)cc4)cn3c2=O)n1 [compound 149, 6-(4-chlorophenyl)-2-((3-methyl-1,2,4-oxadiazol-5-yl)methyl)-[1,2,4]triazolo[4,3-a]pyridin-3(2H)-one]",26.2
2,"Cc1cnc(Cn2nc3ccc(-c4ccc(OC(F)(F)F)cc4)cn3c2=O)o1 [compound 25, 2-((5-methyloxazol-2-yl)methyl)-6-(4-(trifluoromethoxy)phenyl)-[1,2,4]triazolo[4,3-a]pyridin-3(2H)-one]",30.3
3,"Cc1ccnc(CCn2nc3ccc(-c4ccc(OC(F)(F)F)cc4)cn3c2=O)c1 [compound 58, 2-(2-(4-methylpyridin-2-yl)ethyl)-6-(4-(trifluoromethoxy)phenyl)-[1,2,4]triazolo[4,3-a]pyridin-3(2H)-one]",14.9
4,"Cc1noc(Cn2nc3ccc(-c4ccc(OC(F)(F)F)c(F)c4)cn3c2=O)n1 [compound 155, 6-(3-fluoro-4-(trifluoromethoxy)phenyl)-2-((3-methyl-1,2,4-oxadiazol-5-yl)methyl)-[1,2,4]triazolo[4,3-a]pyridin-3(2H)-one]",18.8
5,"Cc1cnc(Cn2nc3ccc(-c4ccc(Cl)cc4)cn3c2=O)o1 [compound 195, 6-(4-chlorophenyl)-2-((5-methyloxazol-2-yl)methyl)-[1,2,4]triazolo[4,3-a]pyridin-3(2H)-one]",31.2
6,"Cc1cccc(C)c1OCCn1nc2ccc(-c3ccc(OC(F)(F)F)cc3)cn2c1=O [compound 44, 2-(2-(2,6-dimethylphenoxy)ethyl)-6-(4-(trifluoromethoxy)phenyl)-[1,2,4]triazolo[4,3-a]pyridin-3(2H)-one]",43.1
7,"CC(C)(C)c1cnc(Cn2nc3ccc(-c4ccc(C(F)(F)F)cc4)cn3c2=O)o1 [compound 184, 2-((5-tert-butyloxazol-2-yl)methyl)-6-(4-(trifluoromethyl)phenyl)-[1,2,4]triazolo[4,3-a]pyridin-3(2H)-one]",18.9
8,"O=c1n(CCOc2ncccc2C(F)(F)F)nc2ccc(-c3ccc(OC(F)(F)F)cc3)cn12 [compound 47, 6-(4-(trifluoromethoxy)phenyl)-2-(2-(3-(trifluoromethyl)pyridin-2-yloxy)ethyl)-[1,2,4]triazolo[4,3-a]pyridin-3(2H)-one]",43.6
9,"Cc1nonc1Cn1nc2ccc(-c3ccc(OC(F)(F)F)cc3)cn2c1=O [compound 2, 2-((4-methyl-1,2,5-oxadiazol-3-yl)methyl)-6-(4-(trifluoromethoxy)phenyl)-[1,2,4]triazolo[4,3-a]pyridin-3(2H)-one]",41.3
10,"O=c1n(CC(O)COc2ccc(Cl)cc2)nc2ccc(-c3ccc(OC(F)(F)F)cc3)cn12 (stereo not drawn) [compound 38, 2-(3-(4-chlorophenoxy)-2-hydroxypropyl)-6-(4-(trifluoromethoxy)phenyl)-[1,2,4]triazolo[4,3-a]pyridin-3(2H)-one]",10.8
11,"O=c1n(Cc2noc(COc3ncccn3)n2)nc2ccc(-c3ccc(OC(F)(F)F)cc3)cn12 [compound 162, 2-((5-((pyrimidin-2-yloxy)methyl)-1,2,4-oxadiazol-3-yl)methyl)-6-(4-(trifluoromethoxy)phenyl)-[1,2,4]triazolo[4,3-a]pyridin-3(2H)-one]",18.5
12,"O=c1n(Cc2cc(-c3ccccn3)on2)nc2ccc(-c3ccc(OC(F)(F)F)cc3)cn12 [compound 144, 2-((5-(pyridin-2-yl)isoxazol-3-yl)methyl)-6-(4-(trifluoromethoxy)phenyl)-[1,2,4]triazolo[4,3-a]pyridin-3(2H)-one]",19.2
13,"O=c1n(CCOc2cccc(Cl)c2)nc2ccc(-c3ccc(OC(F)(F)F)cc3)cn12 [compound 54, 2-(2-(3-chlorophenoxy)ethyl)-6-(4-(trifluoromethoxy)phenyl)-[1,2,4]triazolo[4,3-a]pyridin-3(2H)-one]",20.2
14,"O=c1n(Cc2nc(C3CC3)co2)nc2ccc(-c3ccc(OC(F)(F)F)cc3)cn12 [compound 193, 2-((4-cyclopropyloxazol-2-yl)methyl)-6-(4-(trifluoromethoxy)phenyl)-[1,2,4]triazolo[4,3-a]pyridin-3(2H)-one]",33.8
15,"Cc1nccnc1CCn1nc2ccc(-c3ccc(OC(F)(F)F)cc3)cn2c1=O [compound 117, 2-(2-(3-methylpyrazin-2-yl)ethyl)-6-(4-(trifluoromethoxy)phenyl)-[1,2,4]triazolo[4,3-a]pyridin-3(2H)-one]",18.2
16,"Cc1nc(Cn2nc3ccc(-c4cccc(Oc5ccccc5)c4)cn3c2=O)no1 [compound 31, 2-((5-methyl-1,2,4-oxadiazol-3-yl)methyl)-6-(3-phenoxyphenyl)-[1,2,4]triazolo[4,3-a]pyridin-3(2H)-one]",24.4
17,"O=c1n(CCOc2nccc3ccccc23)nc2ccc(-c3ccc(OC(F)(F)F)cc3)cn12 [compound 141, 2-(2-(isoquinolin-1-yloxy)ethyl)-6-(4-(trifluoromethoxy)phenyl)-[1,2,4]triazolo[4,3-a]pyridin-3(2H)-one]",29.9
18,"O=c1n(CCCOc2cccnn2)nc2ccc(-c3ccc(OC(F)(F)F)cc3)cn12 [compound 79, 2-(3-(pyridazin-3-yloxy)propyl)-6-(4-(trifluoromethoxy)phenyl)-[1,2,4]triazolo[4,3-a]pyridin-3(2H)-one]",11.7
19,"COc1ccccc1-c1nc(Cn2nc3ccc(-c4ccc(OC(F)(F)F)cc4)cn3c2=O)no1 [compound 11, 2-((5-(2-methoxyphenyl)-1,2,4-oxadiazol-3-yl)methyl)-6-(4-(trifluoromethoxy)phenyl)-[1,2,4]triazolo[4,3-a]pyridin-3(2H)-one]",22
20,"Cn1c(CCn2nc3ccc(-c4ccc(OC(F)(F)F)cc4)cn3c2=O)nc2ccccc21 [compound 97, 2-(2-(1-methyl-1H-benzo[d]imidazol-2-yl)ethyl)-6-(4-(trifluoromethoxy)phenyl)-[1,2,4]triazolo[4,3-a]pyridin-3(2H)-one]",16
21,"Cc1nc(Cn2nc3ccc(-c4ccc(OC(F)(F)F)cc4)cn3c2=O)oc1C [compound 22, 2-((4,5-dimethyloxazol-2-yl)methyl)-6-(4-(trifluoromethoxy)phenyl)-[1,2,4]triazolo[4,3-a]pyridin-3(2H)-one]",29.4
22,"Cc1cnc(OCCn2nc3ccc(-c4ccc(OC(F)(F)F)cc4)cn3c2=O)nc1 [compound 82, 2-(2-(5-methylpyrimidin-2-yloxy)ethyl)-6-(4-(trifluoromethoxy)phenyl)-[1,2,4]triazolo[4,3-a]pyridin-3(2H)-one]",32.5
23,"O=c1n(Cc2noc(CO)n2)nc2ccc(-c3ccc(Oc4ccc(F)cc4)cc3)cn12 [compound 146, 6-(4-(4-fluorophenoxy)phenyl)-2-((5-(hydroxymethyl)-1,2,4-oxadiazol-3-yl)methyl)-[1,2,4]triazolo[4,3-a]pyridin-3(2H)-one]",32.6
24,"COC[C@@H](Cn1nc2ccc(-c3ccc(OC(F)(F)F)cc3)cn2c1=O)Oc1ncccc1C(F)(F)F [compound 72, (R)-2-(3-methoxy-2-(3-(trifluoromethyl)pyridin-2-yloxy)propyl)-6-(4-(trifluoromethoxy)phenyl)-[1,2,4]triazolo[4,3-a]pyridin-3(2H)-one]",41.9
